Experimental data as given in publication PMC9145622, “Synthesis, Biological Evaluation, and Docking Studies of Antagonistic Hydroxylated Arecaidine Esters Targeting mAChRs” (Molecules, 2022).
Read-outs that look alike come from different tables or passages of the source.

Legend:
hM3 [1] = biological target: T1, hM3 (Homo sapiens, UniProt P20309); assay: Competitive [3H]NMS radioligand binding, CHO-K1 membranes expressing hM3; settings: for Displacement ± SD hM3: displacement of [3H]NMS, single ligand concentration corresponding to a Ki value of 1 µM (Cheng-Prusoff)
T1 sequence (P20309 whole entry): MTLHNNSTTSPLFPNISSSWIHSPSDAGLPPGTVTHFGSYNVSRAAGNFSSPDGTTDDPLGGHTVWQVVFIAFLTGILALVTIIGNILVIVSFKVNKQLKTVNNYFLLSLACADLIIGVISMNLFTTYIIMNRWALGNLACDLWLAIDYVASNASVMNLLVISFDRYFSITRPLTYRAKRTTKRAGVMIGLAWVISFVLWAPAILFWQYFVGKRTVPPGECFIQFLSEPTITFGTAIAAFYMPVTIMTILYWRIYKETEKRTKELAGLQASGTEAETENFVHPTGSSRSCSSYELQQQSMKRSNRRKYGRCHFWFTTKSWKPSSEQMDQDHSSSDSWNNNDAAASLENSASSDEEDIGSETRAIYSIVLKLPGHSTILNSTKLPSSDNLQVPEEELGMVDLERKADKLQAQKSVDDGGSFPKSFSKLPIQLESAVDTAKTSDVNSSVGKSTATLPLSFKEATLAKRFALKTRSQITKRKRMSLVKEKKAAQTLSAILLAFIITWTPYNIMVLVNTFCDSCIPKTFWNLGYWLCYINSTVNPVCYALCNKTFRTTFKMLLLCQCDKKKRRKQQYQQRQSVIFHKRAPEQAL
Excerpt: (§1) The arecaidine esters’ affinities towards the human mAChR subtypes hM1–hM5 were studied in a competitive radioligand binding assay using CHO-K1 cell membrane homogenates expressing a single mAChR subtype and tritiated N-methyl scopolamine methyl chloride ([^3H]NMS). To speed up our affinity testing regime, we subjected all test substances to preliminary single-concentration displacement assays, as described previously. Compounds with percent displacements below 75% at any of the subtypes were dropped from further investigations (Table S1). For compounds meeting the percent displacement threshold (8c, 10b, 10c, 17b, 18b, and 25), inhibition constants (Ki) were assessed in dose-dependent displacement experiments (Table 2).
(§2) Cell membranes bearing hM1-hM5 receptors were prepared as described previously. Briefly, stably transfected CHO-K1 cells were grown to at least 80% confluency in T175 flasks, washed with ice-cold DPBS, and scraped into a mixture of ice-cold 2 mL 10 mM Tris-HCl, 1 mM EDTA-buffer, pH 7.4 and 200 µL protease inhibitor. A cell homogenate was prepared by passing the cell suspension through a G29 needle. The cell homogenates corresponding to two T175 flasks were combined and subsequently centrifuged (10 min, 1000× g, 4 °C). Ultracentrifugation of the supernatant (1 h, 100,000× g, 4 °C) yielded a membrane pellet, which was suspended in 250 µL 50 mM Tris-HCl buffer, pH 7.4 and stored at −80 °C.
(§3) Then, 5 µL of test compound in DMSO, 50 µL of [^3H]NMS in assay buffer, and 445 µL of membrane suspension in assay buffer were incubated for 90 min at 23 °C in PP tubes. Maximum binding was measured by using 5 µL DMSO, and nonspecific binding was measured by using 5 µL of 1 µM scopolamine in DMSO. The effective concentration of [^3H]NMS was 0.2 nM, 0.3 nM, 0.8 nM, 0.2 nM, and 1 nM for M1–M5 and 4–30 µg membrane were used per tube. The membrane-bound radioactivity was recovered by filtration through Whatman™ GF/B glass fiber filters presoaked in aqueous 0.1% PEI using an M-36 tygon tubed cell harvester (Brandel®, Gaithersburg, MD, USA). Membranes were washed three times with ice-cold washing buffer (50 mM Tris, pH 7.4) before being dried, transferred to 2 mL scintillation cocktail (UltimaGold™, high flashpoint LSC cocktail, PerkinElmer, Waltham, MA, USA) and counted in a β-counter (Hidex TDCR liquid scintillation counter in CPM mode). IC50 values were calculated by a variable slope logistic regression using at least five distinct concentrations of test compounds, pipetted in triplicates.

hM4 [2] = biological target: T2, hM4 (Homo sapiens, UniProt P08173); assay: Competitive [3H]NMS radioligand binding, CHO-K1 membranes expressing hM4; settings: for Displacement ± SD hM4: displacement of [3H]NMS, single ligand concentration corresponding to a Ki value of 1 µM (Cheng-Prusoff)
T2 sequence (P08173 1-479): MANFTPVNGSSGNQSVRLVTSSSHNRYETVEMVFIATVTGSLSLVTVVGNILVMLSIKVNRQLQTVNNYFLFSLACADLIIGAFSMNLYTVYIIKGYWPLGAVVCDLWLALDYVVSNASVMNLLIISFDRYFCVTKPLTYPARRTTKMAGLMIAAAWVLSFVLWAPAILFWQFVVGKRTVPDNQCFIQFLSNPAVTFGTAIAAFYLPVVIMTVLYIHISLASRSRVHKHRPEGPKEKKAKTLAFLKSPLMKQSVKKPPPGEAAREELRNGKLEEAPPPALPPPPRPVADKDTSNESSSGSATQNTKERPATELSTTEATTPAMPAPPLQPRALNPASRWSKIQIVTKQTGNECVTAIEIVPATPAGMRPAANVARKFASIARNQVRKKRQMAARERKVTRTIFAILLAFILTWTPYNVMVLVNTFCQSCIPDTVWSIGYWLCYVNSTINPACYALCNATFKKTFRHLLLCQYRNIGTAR
Excerpt: as §1, §2, §3

hM5 [3] = biological target: T3, hM5 (Homo sapiens, UniProt P08912); assay: Competitive [3H]NMS radioligand binding, CHO-K1 membranes expressing hM5; settings: for Displacement ± SD hM5: displacement of [3H]NMS, single ligand concentration corresponding to a Ki value of 1 µM (Cheng-Prusoff)
T3 sequence (P08912 1-532): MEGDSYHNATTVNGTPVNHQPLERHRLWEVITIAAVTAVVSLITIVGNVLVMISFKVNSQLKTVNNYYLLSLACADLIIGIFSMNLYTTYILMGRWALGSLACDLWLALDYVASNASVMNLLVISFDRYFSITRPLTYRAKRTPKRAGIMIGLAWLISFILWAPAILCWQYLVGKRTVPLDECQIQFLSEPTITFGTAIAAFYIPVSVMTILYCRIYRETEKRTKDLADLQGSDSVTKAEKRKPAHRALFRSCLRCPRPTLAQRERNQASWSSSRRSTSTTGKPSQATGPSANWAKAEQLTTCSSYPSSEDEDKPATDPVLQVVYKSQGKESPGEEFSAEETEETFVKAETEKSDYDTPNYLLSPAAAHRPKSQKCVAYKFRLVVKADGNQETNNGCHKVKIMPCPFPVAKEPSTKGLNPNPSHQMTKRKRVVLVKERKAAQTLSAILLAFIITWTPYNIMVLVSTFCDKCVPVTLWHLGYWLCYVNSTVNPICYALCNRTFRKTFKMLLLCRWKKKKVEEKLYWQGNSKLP
Excerpt: as §1, §2, §3

[4] = High-throughput HPLC-logD; type: physicochemical; settings: octadecyl-poly(vinyl alcohol) column, methanol / 0.01 M sodium phosphate buffer pH 7.4
Excerpt: For this, logD values were estimated in an HPLC-based high-throughput assay employing an octadecyl-poly(vinyl alcohol) stationary phase. The absence of silanol groups renders this type of column especially suited in case of analytes with hydrogen bond donor capabilities as it avoids overestimating their lipophilicity.
Briefly, a mixture of toluene (≥98%, Sigma-Aldrich, St. Louis, MO, USA) and triphenylene (≥99.9%, Carl Roth, Karlsruhe, Germany) was used as internal standard. Samples were dissolved in the internal standard mixture. Using gradient elution, the injection volume was set to 7 µL, the flow rate was 1.5 mL/min, and the mobile phase consisted of a mixture of methanol and 0.01 M sodium phosphate buffer pH 7.4. The HPLC-logD values were derived from the measured retention times following the previously published equation [21, 40].

hM2 [5] = biological target: T4, hM2 (Homo sapiens, UniProt P08172); assay: Competitive [3H]NMS radioligand binding, CHO-K1 membranes expressing hM2; settings: for Displacement ± SD hM2: displacement of [3H]NMS, single ligand concentration corresponding to a Ki value of 1 µM (Cheng-Prusoff)
T4 sequence (P08172 1-466): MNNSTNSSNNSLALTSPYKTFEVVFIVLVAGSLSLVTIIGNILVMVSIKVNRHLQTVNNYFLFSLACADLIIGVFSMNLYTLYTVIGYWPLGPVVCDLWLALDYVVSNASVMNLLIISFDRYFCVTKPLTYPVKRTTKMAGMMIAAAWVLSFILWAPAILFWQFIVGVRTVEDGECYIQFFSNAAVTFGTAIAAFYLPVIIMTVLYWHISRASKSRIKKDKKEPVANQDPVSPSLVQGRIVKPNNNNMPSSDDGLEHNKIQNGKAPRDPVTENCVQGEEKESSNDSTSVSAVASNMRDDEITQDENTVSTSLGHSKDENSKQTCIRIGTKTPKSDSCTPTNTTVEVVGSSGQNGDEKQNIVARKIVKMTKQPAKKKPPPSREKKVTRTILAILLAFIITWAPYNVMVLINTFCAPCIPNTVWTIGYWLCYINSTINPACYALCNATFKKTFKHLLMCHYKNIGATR
Excerpt: as §1, §2, §3

hM1 [6] = biological target: T5, hM1 (Homo sapiens, UniProt P11229); assay: Competitive [3H]NMS radioligand binding, CHO-K1 membranes expressing hM1; settings: for Displacement ± SD hM1: displacement of [3H]NMS, single ligand concentration corresponding to a Ki value of 1 µM (Cheng-Prusoff)
T5 sequence (P11229 1-460): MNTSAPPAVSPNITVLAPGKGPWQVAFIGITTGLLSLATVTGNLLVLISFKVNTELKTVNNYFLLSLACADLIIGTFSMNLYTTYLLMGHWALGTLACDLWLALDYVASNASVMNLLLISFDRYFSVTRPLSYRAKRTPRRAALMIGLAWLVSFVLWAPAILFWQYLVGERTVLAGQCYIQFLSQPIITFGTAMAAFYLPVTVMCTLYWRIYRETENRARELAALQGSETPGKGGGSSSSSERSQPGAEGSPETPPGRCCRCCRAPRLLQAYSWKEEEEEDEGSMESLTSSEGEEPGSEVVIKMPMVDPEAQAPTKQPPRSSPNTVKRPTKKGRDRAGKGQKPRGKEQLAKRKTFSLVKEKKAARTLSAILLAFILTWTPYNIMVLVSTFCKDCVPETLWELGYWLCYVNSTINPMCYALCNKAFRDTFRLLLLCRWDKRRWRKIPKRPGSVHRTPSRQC
Excerpt: as §1, §2, §3

[7] = design: method as in Ozenil et al. [10]; settings: ref Ozenil et al. [10]; cited from earlier work
hM1 [8] = biological target: T5, hM1; design: method as in Ozenil et al. [10]; settings: [3H]NMS; ref Ozenil et al. [10]; read-out: Affinity: Ki ± SD hM1; cited from earlier work
hM4 [9] = biological target: T2, hM4; design: method as in Ozenil et al. [10]; settings: [3H]NMS; ref Ozenil et al. [10]; read-out: Affinity: Ki ± SD hM4; cited from earlier work
hM3 [10] = biological target: T1, hM3; design: method as in Ozenil et al. [10]; settings: [3H]NMS; ref Ozenil et al. [10]; read-out: Affinity: Ki ± SD hM3; cited from earlier work
hM5 [11] = biological target: T3, hM5; design: method as in Ozenil et al. [10]; settings: [3H]NMS; ref Ozenil et al. [10]; read-out: Affinity: Ki ± SD hM5; cited from earlier work
hM2 [12] = biological target: T4, hM2; design: method as in Ozenil et al. [10]; settings: [3H]NMS; ref Ozenil et al. [10]; read-out: Affinity: Ki ± SD hM2; cited from earlier work

Row | SMILES | chromatographic logD [4] | Displacement ± SD hM3 (hM3 [1]) | Displacement ± SD hM4 (hM4 [2]) | Displacement ± SD hM5 (hM5 [3]) | Displacement ± SD hM2 (hM2 [5]) | Displacement ± SD hM1 (hM1 [6]) | further results
1 | CN1CCC=C(C(=O)OCc2cccc(CO)c2)C1 [Compound 8b, 3-(hydroxymethyl)benzyl 1-methyl-1,2,5,6-tetrahydropyridine-3-carboxylate] | 0.87 ± 0.01 | 34 ± 4% | 22 ± 1% | 29 ± 6% | 23 ± 4% | 31 ± 3% | 
2 | CN1CCC=C(C(=O)OC(c2ccccc2)c2cccc(CO)c2)C1 (centres unmarked) [Compound 10b, (3-(hydroxymethyl)phenyl)(phenyl)methyl 1-methyl-1,2,5,6-tetrahydropyridine-3-carboxylate] | 2.6 ± 0.1 |  |  |  |  |  | Ki (hM3 [1]; [3H]NMS, CHO-hM3 cell membrane preparations, read-out: Affinity: Ki ± SD hM3): 70.4 ± 1.8 nM; Ki (hM4 [2]; [3H]NMS, CHO-hM4 cell membrane preparations, read-out: Affinity: Ki ± SD hM4): 32.3 ± 3.8 nM; Ki (hM5 [3]; [3H]NMS, CHO-hM5 cell membrane preparations, read-out: Affinity: Ki ± SD hM5): 49.1 ± 8.5 nM; Ki (hM2 [5]; [3H]NMS, CHO-hM2 cell membrane preparations, >1000 values from two independent (single-concentration) experiments, read-out: Affinity: Ki ± SD hM2): 198 ± 35 nM; Ki (hM1 [6]; [3H]NMS, CHO-hM1 cell membrane preparations, read-out: Affinity: Ki ± SD hM1): 12.5 ± 0.8 nM
3 | CN1CCC=C(C(=O)Oc2ccccc2-c2ccccc2O)C1 [Compound 27, 2′-hydroxy-[1,1′-biphenyl]-2-yl 1-methyl-1,2,5,6-tetrahydropyridine-3-carboxylate] | 2.69 ± 0.01 | 51 ± 9% | 46 ± 3% | 65 ± 11% | 34 ± 7% | 37 ± 6% | melting point: 142 to 144 °C
4 | CN1CCC=C(C(=O)OC(c2ccccc2)c2ccccc2)C1 [DPMA, benzhydryl 1-methyl-1,2,5,6-tetrahydropyridine-3-carboxylate] |  |  |  |  |  |  | HPLC-logD [7]: 3.32 ± 0.04 ^2; Ki (hM1 [8]): 3.1 ± 0.5 nM; Ki (hM4 [9]): 16 ± 4 nM; Ki (hM3 [10]): 56 ± 22 nM; Ki (hM5 [11]): 14 ± 1 nM; x-Fold Selectivity for hM1 vs. hM2 (hM1 [6]; ratio of the Ki values hM2/hM1): 35.5 x-fold; x-Fold Selectivity for hM1 vs. hM3 (hM1 [6]; ratio of the Ki values hM3/hM1): 18.1 x-fold; x-Fold Selectivity for hM1 vs. hM4 (hM1 [6]; ratio of the Ki values hM4/hM1): 5.2 x-fold; x-Fold Selectivity for hM1 vs. hM5 (hM1 [6]; ratio of the Ki values hM5/hM1): 4.5 x-fold; Ki (hM2 [12]): 110 ± 39 nM

Now from value to compound, other results behind:

Row | chromatographic logD [4] | SMILES | Displacement ± SD hM3 (hM3 [1]) | Displacement ± SD hM4 (hM4 [2]) | Displacement ± SD hM5 (hM5 [3]) | Displacement ± SD hM2 (hM2 [5]) | Displacement ± SD hM1 (hM1 [6]) | further results
5 | 0.79 ± 0.01 | CN1CCC=C(C(=O)OCc2ccccc2CO)C1 [Compound 8a, 2-(hydroxymethyl)benzyl 1-methyl-1,2,5,6-tetrahydropyridine-3-carboxylate] | 72 ± 4% | 56 ± 9% | 72 ± 3% | 43 ± 2% | 66 ± 5% | 
6 | 0.92 ± 0.08 | CN1CCC=C(C(=O)OC(CO)c2ccccc2)C1 (centres unmarked) [Compound 22, 2-hydroxy-1-phenylethyl 1-methyl-1,2,5,6-tetrahydropyridine-3-carboxylate] | 33 ± 8% | 51 ± 5% | 72 ± 5% | 28 ± 5% | 61 ± 2% | 
